Laboratory results taken from ChEMBL document CHEMBL5528052, “Single Deletion Unmasks Hidden Anti-Gram-Negative Bacterial Activity of an Insect Defensin-Derived Peptide” (J Med Chem, 2024).
The source made the active and inactive calls. The calls are words filed in the database; no cut-off is given here. Peptide text beside a SMILES is read from it.

How the values were obtained:
Escherichia coli [1] = assay: Antimicrobial activity against Escherichia coli J14b assessed as lethal concentration; type: functional
Erythrocyte = assay: Hemolytic activity in mouse erythrocytes assessed as hemolysis at 100 uM; type: toxicity, cell-based
Escherichia coli [2] = assay: Antimicrobial activity against Escherichia coli G2b assessed as lethal concentration; type: functional
Pseudomonas aeruginosa [3] = assay: Antimicrobial activity against Pseudomonas aeruginosa 11092304 assessed as lethal concentration; type: functional
HEK293 = assay: Cytotoxicity against HEK293 cells assessed as reduction in cell viability at 200 microg/ml incubated for 48 hrs by CCK-8 assay; type: toxicity, cell-based; conditions: human, hek293, 48 h, dose 200 µg/ml
Komagataella pastoris = assay: Antifungal activity against Pichia pastoris X33 assessed as lethal concentration; type: functional
Pseudomonas aeruginosa [4] = assay: Antimicrobial activity against Pseudomonas aeruginosa QT1 assessed as lethal concentration; type: functional
Salmonella enterica [5] = assay: Antimicrobial activity against Salmonella enterica ATCC 14028 at 0.25 to 1 nmol; type: functional, organism-based; conditions: dose 0.25-1 nmol
Micrococcus luteus [6] = assay: Antimicrobial activity against Micrococcus luteus in presence of NaCl; type: functional, organism-based
Bacillus subtilis = assay: Antimicrobial activity against Bacillus subtilis CGMCC 1.2428 assessed as lethal concentration; type: functional
Staphylococcus [7] = assay: Antimicrobial activity against methicillin-resistant coagulase negative Staphylococcus P1369 assessed as lethal concentration; type: functional
Pseudomonas aeruginosa [8] = assay: Antimicrobial activity against Pseudomonas aeruginosa 374 assessed as lethal concentration; type: functional
Geotrichum candidum = assay: Antifungal activity against Geotrichum candidum CCTCC AY 93038 assessed as lethal concentration; type: functional
Pseudomonas aeruginosa [9] = assay: Antimicrobial activity against Pseudomonas aeruginosa DH assessed as lethal concentration; type: functional
[10] = Stability of compound in PBS at pH 7 measured after 3 days; type: physicochemical; conditions: buffer, pH 7, 72 h; time 3 day
Cell membrane [11] = assay: Disruption of outer membrane integrity in […] by NPN uptake assay; type: cell membranes
[12] = Solubility of compound in guanidine hydrochloride at 1 mg/ml by RP-HPLC analysis; type: physicochemical
Pseudomonas aeruginosa [13] = assay: Antimicrobial activity against Pseudomonas aeruginosa 11092618 assessed as lethal concentration; type: functional
Micrococcus luteus [14] = assay: Antimicrobial activity against Micrococcus luteus CGMCC 1.0290 assessed as lethal concentration; type: functional
Salmonella enterica [15] = assay: Antimicrobial activity against Salmonella enterica ATCC 14028 assessed as lethal concentration; type: functional
Escherichia coli [16] = assay: Antimicrobial activity against Escherichia coli J45b assessed as lethal concentration; type: functional
Streptococcus salivarius = assay: Antimicrobial activity against Streptococcus salivarius ATCC 1.2498 assessed as lethal concentration; type: functional
[17] = tested on: Lysinibacillus fusiformis; assay: Antimicrobial activity against Lysinibacillus fusiformis assessed as lethal concentration; type: functional
Curtobacterium luteum = assay: Antimicrobial activity against Curtobacterium luteum assessed as lethal concentration; type: functional
Ralstonia solanacearum = assay: Antimicrobial activity against Ralstonia solanacearum assessed as lethal concentration; type: functional
[18] = Retention time of the compound by RP-HPLC analysis; type: physicochemical
Staphylococcus [19] = assay: Antimicrobial activity against methicillin-resistant coagulase negative Staphylococcus P1369 at 0.25 to 1 nmol; type: functional, organism-based; conditions: dose 0.25-1 nmol
Alcaligenes faecalis = assay: Antimicrobial activity against Alcaligenes faecalis CGMCC 1.1837 assessed as lethal concentration; type: functional
Staphylococcus aureus [20] = assay: Antimicrobial activity against penicillin-resistant Staphylococcus aureus P1383 assessed as lethal concentration; type: functional
Micrococcus luteus [21] = assay: Antimicrobial activity against Micrococcus luteus in presence of human serum; type: functional, organism-based
Pseudomonas aeruginosa [22] = assay: Antimicrobial activity against Pseudomonas aeruginosa O1 assessed as lethal concentration; type: functional
Streptococcus mutans [23] = assay: Antimicrobial activity against Streptococcus mutans ATCC 1.2499 assessed as lethal concentration; type: functional
[24] = tested on: Staphylococcus epidermidis; assay: Antimicrobial activity against penicillin-resistant Staphylococcus epidermidis P1389 assessed as lethal concentration; type: functional
Pseudomonas aeruginosa [25] = assay: Antimicrobial activity against Pseudomonas aeruginosa 11082603 assessed as lethal concentration; type: functional
Streptococcus sanguinis = assay: Antimicrobial activity against Streptococcus sanguinis ATCC 1.2497 assessed as lethal concentration; type: functional
Staphylococcus aureus [26] = assay: Antimicrobial activity against Staphylococcus aureus J685 assessed as lethal concentration; type: functional
Escherichia coli [27] = assay: Antimicrobial activity against Escherichia coli J23a assessed as lethal concentration; type: functional
Escherichia coli [28] = assay: Antimicrobial activity against Escherichia coli J16c assessed as lethal concentration; type: functional
Staphylococcus warneri = assay: Antimicrobial activity against Staphylococcus warneri ATCC 1.2824 assessed as lethal concentration; type: functional
Cell membrane [29] = assay: Induction of cytoplasmic membrane disruption in Bacillus megaterium assessed as increase in fluorescence intensity by NPN uptake assay; type: cell membranes; conditions: Priestia megaterium
Pseudomonas aeruginosa [30] = assay: Antimicrobial activity against Pseudomonas aeruginosa FRD1 assessed as lethal concentration; type: functional
Cell membrane [31] = assay: Induction of membrane disruption in Staphylococcus epidermidis incubated for 90 mins by SEM analysis; type: cell membranes
Pseudomonas aeruginosa [32] = assay: Antimicrobial activity against Pseudomonas aeruginosa 11082616 assessed as lethal concentration; type: functional
Streptococcus mutans [33] = assay: Antimicrobial activity against Streptococcus mutans ATCC 1.2499 at 1 nmol relative to control; type: functional, organism-based
Pseudomonas aeruginosa [34] = assay: Antimicrobial activity against Pseudomonas aeruginosa assessed as lethal concentration; type: functional
[35] = tested on: Stenotrophomonas maltophilia; assay: Antimicrobial activity against Stenotrophomonas maltophilia CGMCC 1.1788 assessed as lethal concentration; type: functional
Escherichia coli [36] = assay: Antimicrobial activity against Escherichia coli DH5alpha assessed as lethal concentration; type: functional
Staphylococcus aureus [37] = assay: Antimicrobial activity against methicillin-resistant Staphylococcus aureus P1386 assessed as lethal concentration; type: functional
[38] = Solubility of compound in water at 1 nmol by RP-HPLC analysis; type: physicochemical; conditions: buffer
Cell membrane [39] = assay: Induction of membrane disruption in Staphylococcus epidermidis incubated for 30 mins by transmission electron microscopic analysis; type: cell membranes
Staphylococcus aureus [40] = assay: Antimicrobial activity against methicillin-resistant Staphylococcus aureus P1374 assessed as lethal concentration; type: functional
Priestia megaterium = assay: Antimicrobial activity against Bacillus megaterium CGMCC 1.0459 assessed as lethal concentration; type: functional

SMILES: CC[C@H](C)[C@H](NC(=O)[C@H](CCCCN)NC(=O)[C@H](CC(N)=O)NC(=O)[C@H](CC(N)=O)NC(=O)[C@H](CS)NC(=O)[C@H](Cc1ccc(O)cc1)NC(=O)[C@H](CS)NC(=O)[C@@H](NC(=O)[C@H](C)N)[C@@H](C)O)C(=O)N[C@@H](CS)C(=O)N[C@H](C(=O)N[C@@H](CS)C(=O)N[C@@H](CCCNC(=N)N)C(=O)N[C@@H](CCCNC(=N)N)C(N)=O)C(C)C (H-ATCYCNNKICVCRR-NH2)
- LD (Escherichia coli [1]): 12.9 µM
- Activity (Erythrocyte): Non-Toxic
- LD (Escherichia coli [2]): 12.9 µM
- LD (Pseudomonas aeruginosa [3]): 43.43 µM
- Activity (HEK293): Non-Toxic
- LD (Komagataella pastoris): 7.86 µM
- LD (Pseudomonas aeruginosa [4]): 22.87 µM
- Activity (Salmonella enterica [5]): Active
- Activity (Micrococcus luteus [6]): Active
- LD (Bacillus subtilis): 2.6 µM
- LD (Staphylococcus [7]): 0.27 µM
- LD (Pseudomonas aeruginosa [8]): 35.1 µM
- LD (Geotrichum candidum): 9.62 µM
- LD (Pseudomonas aeruginosa [9]): 49.32 µM
- Stability [10]: Stable
- Activity (Cell membrane [11]): Active
- solubility [12]: Soluble
- LD (Pseudomonas aeruginosa [13]): 75.89 µM
- LD (Micrococcus luteus [14]): 2.6 µM
- LD (Salmonella enterica [15]): 4.88 µM
- LD (Escherichia coli [16]): 7.14 µM
- LD (Streptococcus salivarius): 2.51 µM
- LD [17]: 0.63 µM
- LD (Curtobacterium luteum): 0.87 µM
- LD (Ralstonia solanacearum): 17.5 µM
- Retention_time [18]: 14.5 min
- Activity (Staphylococcus [19]): Active
- LD (Alcaligenes faecalis): 10.4 µM
- LD (Staphylococcus aureus [20]): 1.17 µM
- Activity (Micrococcus luteus [21]): Active
- LD (Pseudomonas aeruginosa [22]): 21.42 µM
- LD (Streptococcus mutans [23]): 3.22 µM
- LD [24]: 12.79 µM
- LD (Pseudomonas aeruginosa [25]): 15.38 µM
- LD (Streptococcus sanguinis): 2.58 µM
- LD (Staphylococcus aureus [26]): 7.01 µM
- LD (Escherichia coli [27]): 7.86 µM
- LD (Escherichia coli [28]): 7.86 µM
- LD (Staphylococcus warneri): 4.17 µM
- Activity (Cell membrane [29]): Active
- LD (Pseudomonas aeruginosa [30]): 21.95 µM
- Activity (Cell membrane [31]): Active
- LD (Pseudomonas aeruginosa [32]): 35.1 µM
- Activity (Streptococcus mutans [33]): inactive
- LD (Pseudomonas aeruginosa [34]): 7.32 µM
- LD [35]: 21.72 µM
- LD (Escherichia coli [36]): 21.42 µM
- LD (Staphylococcus aureus [37]): 3.46 µM
- solubility [38]: Soluble
- Activity (Cell membrane [39]): Active
- LD (Staphylococcus aureus [40]): 4.62 µM
- LD (Priestia megaterium): 1.23 µM
